Experimental findings from ChEMBL document CHEMBL2150895, “Zizimauritic acids A-C, three novel nortriterpenes from Ziziphus mauritiana” (Bioorg Med Chem Lett, 2012) are described below.

Converted amounts (≈) assume the structure as drawn. The source made the active and inactive calls. No cut-off for these calls is given here.

The subject of one experiment is A549. In words: Cytotoxicity against human A549 cells. In kind it is functional, cell-based.
The subject of the next experiment is BGC-823. Description: Cytotoxicity against human BGC823 cells. In kind it is functional, cell-based.
For another experiment, the system named is HeLa. In words: Cytotoxicity against human HeLa cells. The format is functional, cell-based.
The subject of the next experiment is Staphylococcus aureus. In words: Antibacterial activity against Staphylococcus aureus. In kind it is functional, organism-based.
A further experiment relates to Candida albicans. Description: Antifungal activity against Candida albicans. The format is functional, organism-based.

In general, IC50 refers to the concentration that inhibits the measured activity by half. A low value points to inhibition by little substance. With `CC(C)=C[C@@H]1[C@H]2CC[C@@H]3[C@@]4(C)C=CC(C)(C)[C@@H]4CC[C@@]3(C)[C@]2(C(=O)O)CC[C@@]12CC(O)OC2=O` (mixture of isomers) [ZIZIMAURITIC ACID C], the half-inhibitory concentration (IC50) with A549 was 11.9 µg/mL; in the experiment with BGC-823, 10.1 µg/mL; in the experiment on HeLa it was 9.25 µg/mL; in the experiment on Staphylococcus aureus, 12.8 µg/mL; in the experiment on Candida albicans, greater than 10 µg/mL.
For the molecule `C=C(C)[C@@H]1CC[C@]2(C(=O)O)CC[C@]3(C(=O)O)[C@H](CC[C@@H]4[C@@]5(C)C=CC(C)(C)[C@@H]5CC[C@]43C)[C@@H]12` [CEANOTHENIC ACID], the IC50 in the experiment on BGC-823 is greater than 10 µg/mL; in the experiment with HeLa it was 7.55 µg/mL (≈ 16.6 µM); with Staphylococcus aureus, greater than 20 µg/mL; in the experiment with Candida albicans it was greater than 10 µg/mL.
Turning to `CO[C@H]1C[C@@]2(CC[C@]3(C(=O)O)[C@H](CC[C@@H]4[C@@]5(C)C=CC(C)(C)[C@@H]5CC[C@]43C)[C@H]2C=C(C)C)C(=O)O1` [ZIZIMAURITIC ACID A], the IC50 in the experiment with A549 is 9.37 µg/mL (≈ 19.3 µM); with BGC-823 it was 8.8 µg/mL (≈ 18.2 µM); in the experiment on HeLa, 6.06 µg/mL (≈ 12.5 µM); with Staphylococcus aureus, 2.17 µg/mL (≈ 4.48 µM); with Candida albicans, greater than 10 µg/mL.
As to `CO[C@@H]1C[C@@]2(CC[C@]3(C(=O)O)[C@H](CC[C@@H]4[C@@]5(C)C=CC(C)(C)[C@@H]5CC[C@]43C)[C@H]2C=C(C)C)C(=O)O1` [ZIZIMAURITIC ACID B], the half-inhibitory concentration (IC50) is 5.05 µg/mL (≈ 10.4 µM) in the experiment on A549; 6.24 µg/mL (≈ 12.9 µM) in the experiment with BGC-823; 5.36 µg/mL (≈ 11.1 µM) in the experiment with HeLa; greater than 20 µg/mL in the experiment on Staphylococcus aureus; greater than 10 µg/mL in the experiment on Candida albicans.
`Clc1ccc(COC(Cn2ccnc2)c2ccc(Cl)cc2Cl)c(Cl)c1.O=[N+]([O-])O` (configuration not stated) [MICONAZOLE NITRATE] gave an IC50 with Candida albicans of 0.16 µg/mL.
The molecule `CC1(C)S[C@@H]2[C@H](NC(=O)[C@H](N)c3ccccc3)C(=O)N2[C@H]1C(=O)O` [AMPICILLIN] displayed an IC50 with Staphylococcus aureus of 0.04 µg/mL (≈ 0.114 µM).
Consider `C=C(C)[C@@H]1CC[C@]2(C(=O)O)CC[C@]3(C)[C@H](CC[C@@H]4[C@@]5(C)CC[C@H](O)C(C)(C)[C@@H]5CC[C@]43C)[C@@H]12`, for which the outcome with A549, with BGC-823, in the experiment with HeLa and in the experiment with Staphylococcus aureus was inactive.
Regarding `CC(=O)O[C@H]1C(=O)[C@@]2(C)[C@H]([C@H](OC(=O)c3ccccc3)[C@]3(O)C[C@H](OC(=O)[C@H](O)[C@@H](NC(=O)c4ccccc4)c4ccccc4)C(C)=C1C3(C)C)[C@]1(OC(C)=O)CO[C@@H]1C[C@@H]2O` [PACLITAXEL], the IC50 with A549 worked out at 0.02 µg/mL (≈ 0.0234 µM); in the experiment on BGC-823, 0.01 µg/mL (≈ 0.0117 µM); with HeLa, 0.38 µg/mL (≈ 0.445 µM).
Regarding `C=C(C)[C@@H]1CC[C@]2(C(=O)O)CC[C@]3(C)[C@H](CC[C@@H]4[C@@]5(C)[C@@H](C(=O)O)[C@H](O)C(C)(C)[C@@H]5CC[C@]43C)[C@@H]12`, the result in the experiment with A549, in the experiment on BGC-823, in the experiment on HeLa and in the experiment on Staphylococcus aureus was inactive.
